Measurements taken from ChEMBL document CHEMBL3046431, “Novel 4H-1,2,4-triazol-3-yl cycloalkanols as potent antitubercular agents” (Med Chem Res, 2013).
Values after ≈ are worked out from the molar mass of the structure shown.

What was measured:
[1] = system: Mycobacterium tuberculosis; assay: Antitubercular activity against Mycobacterium tuberculosis H37Rv assessed as growth inhibition after 7 days by resazurin microplate assay; assay type: functional; conditions: 168 h
[2] = Cytotoxicity against Chlorocebus aethiops (African green monkey) Vero C1008 cells assessed as cell viability after 72 hr by MTT assay; assay type: cell-based; conditions: chlorocebus sabaeus
[3] = Selectivity index, ratio of CC50 for african green monkey Vero C1008 cells to MIC for Mycobacterium tuberculosis H37Rv; assay type: toxicity, cell-based; conditions: read-out: Selectivity Index

Structure (SMILES)	MIC [1] [µg/mL]	CC50 at 72 h [2] [µg/mL]	selectivity ratio [3]
Cc1csc(-c2nnc(C3(O)C4CC5CC(C4)CC3C5)[nH]2)c1 (stereo unspecified)	4.25 (≈ 13.5 µM)	356 (≈ 1130 µM)	84
CC1CCC(O)(c2nnc(-c3ccncc3)[nH]2)CC1 (stereo unspecified)	0.95 (≈ 3.68 µM)	403 (≈ 1560 µM)	424
CC1CCC(O)(c2nnc(-c3ccccc3)[nH]2)CC1 (stereo unspecified)	15.5 (≈ 60.2 µM)	437 (≈ 1700 µM)	28
Cc1nnc(C2(O)CCCCC2)[nH]1	6.25 (≈ 34.5 µM)	392 (≈ 2160 µM)	63
Cc1nnc(C2(O)CC(C)CC(C)(C)C2)[nH]1 (stereo unspecified)	4.5 (≈ 20.2 µM)	380 (≈ 1700 µM)	84
Cc1nnc(C(O)C2CC=CCC2)[nH]1 (stereo unspecified)	5.15 (≈ 26.6 µM)	318 (≈ 1650 µM)	62
Cc1nnc(C(O)C2CCC(O)C(O)C2)[nH]1 (stereo unspecified)	3.25 (≈ 14.3 µM)	378 (≈ 1660 µM)	116
Oc1ccc(-c2nnc(C3(O)CCCC3)[nH]2)cc1	3.2 (≈ 13 µM)	347 (≈ 1410 µM)	108
OC1(c2nnc(-c3ccncc3)[nH]2)CCCC1	0.78 (≈ 3.39 µM)	382 (≈ 1660 µM)	490
OC1(c2nnc(-c3ccccc3)[nH]2)CCCCC1	12.4 (≈ 50.8 µM)	422 (≈ 1730 µM)	34
Oc1ccc(-c2nnc(C3(O)CCCCC3)[nH]2)cc1	7.5 (≈ 28.9 µM)	340 (≈ 1310 µM)	45
OC1(c2nnc(-c3ccncc3)[nH]2)CCCCC1	0.59 (≈ 2.42 µM)	412 (≈ 1690 µM)	698
OC1(c2nnc(-c3cccnc3)[nH]2)CCCCC1	4.5 (≈ 18.4 µM)	397 (≈ 1630 µM)	88
Cc1csc(-c2nnc(C3(O)CCCCC3)[nH]2)c1	1.65 (≈ 6.27 µM)	373 (≈ 1420 µM)	226
CC1CC(C)(C)CC(O)(c2nnc(-c3ccccc3)[nH]2)C1 (stereo unspecified)	15.4 (≈ 53.8 µM)	383 (≈ 1340 µM)	25
CC1CC(C)(C)CC(O)(c2nnc(-c3ccc(O)cc3)[nH]2)C1 (stereo unspecified)	10.5 (≈ 34.8 µM)	352 (≈ 1170 µM)	33
CC1CC(C)(C)CC(O)(c2nnc(-c3ccncc3)[nH]2)C1 (stereo unspecified)	0.65 (≈ 2.27 µM)	414 (≈ 1450 µM)	637
CC1CC(C)(C)CC(O)(c2nnc(-c3cccnc3)[nH]2)C1 (stereo unspecified)	12.5 (≈ 43.6 µM)	368 (≈ 1290 µM)	29
OC(c1nnc(-c2ccccc2)[nH]1)C1CC=CCC1 (stereo unspecified)	12.5 (≈ 49 µM)	358 (≈ 1400 µM)	29
OC(c1nnc(-c2ccncc2)[nH]1)C1CC=CCC1 (stereo unspecified)	1.25 (≈ 4.88 µM)	388 (≈ 1510 µM)	310
OC(c1nnc(-c2cccnc2)[nH]1)C1CC=CCC1 (stereo unspecified)	8.5 (≈ 33.2 µM)	371 (≈ 1450 µM)	44
OC1CCC(C(O)c2nnc(-c3ccccc3)[nH]2)CC1O (stereo unspecified)	7.75 (≈ 26.8 µM)	429 (≈ 1480 µM)	55
OC1CCC(C(O)c2nnc(-c3ccncc3)[nH]2)CC1O (stereo unspecified)	0.9 (≈ 3.1 µM)	429 (≈ 1480 µM)	477
NNC(=O)c1ccncc1 [ISONIAZID]	0.4 (≈ 2.92 µM)	–	499
